Assay type in all cases: cell-based
Experiment [1] concerns Vancomycin-resistant Enterococcus fecalis ATCC-51299 (VRE ATCC-51299). As to the kind of experiment: MIC of active MY compounds. As to conditions: read-out: MIC VRE ATCC-51299. The text has this:
(§1) Based upon the initial results obtained, the active compounds were further screened against additional clinical isolates of methicillin-sensitive S. aureus (MSSA), methicillin-resistant S. aureus (MRSA), vancomycin-resistant S. aureus (VRSA), Staphylococcus epidermidis, vancomycin-resistant Enterococcus faecium (VRE), vancomycin-resistant Enterococcus faecalis (VRE) and Streptococcus pneumoniae, as presented in Table 2. Additionally, we examined whether the compounds were bacteriostatic (inhibit bacteria from growing) or bactericidal (kill bacteria) by determining the minimum bactericidal concentration (MBC). The MBC was determined by plating 5 μL from each well where no growth was present (in the MIC plates) onto tryptic soya agar plates and incubating plates at 37° C. for 24 hours. The MBC was categorized as the lowest concentration that generated a 99.9% reduction in bacterial colony-forming units (Table 3).
(§2) The minimum inhibitory concentrations (MICs) of the tested compounds and control drugs; linezolid, vancomycin, gentamicin (antibiotics) and fluconazole and 5-fluorocytosine (5-FC) (antifungal drugs) were determined using the broth microdilution method, according to guidelines outlined by the Clinical and Laboratory Standards Institute (CLSI)^1, 2, 3 against clinically-relevant bacterial (methicillin-resistant Staphylococcus aureus (MRSA), Escherichia coli and Clostridium difficile strains) and fungal (Candida albicans) strain. S. aureus and E. coli were grown aerobically overnight on tryptone soy agar plates at 37° C. C. difficile was grown anaerobically on brain heart infusion supplemented agar at 37° C. for 48 hours. C. albicans was grown aerobically overnight on yeast peptone dextrose (YPD) agar plate at 35° C. Afterwards, a bacterial solution equivalent to 0.5 McFarland standard was prepared and diluted in cation-adjusted Mueller-Hinton broth (CAMHB) (for S. aureus and E. coli) to achieve a bacterial concentration of about 5×10^5 CFU/mL. C. difficile was diluted in brain heart infusion supplemented broth, supplemented with yeast extract, hemin and vitamin K to achieve a bacterial concentration of about 5×10^5 CFU/mL. C. albicans was diluted in Roswell Park Memorial Institute (RPMI 1640) medium with glutamine and without bicarbonate (GIBCO by Life Technologies, Green Island, N.Y., USA) which was buffered to pH 7.0 with 0.165 M of [3-(N-morpholino) propanesulfonic acid] (MOPS) (dot scientific inc., Burton, Mich., USA) to achieve a fungal concentration of about 1.5×10^3 CFU/mL. Compounds and control drugs were added in the first row of the 96-well plates and serially diluted with the corresponding media containing bacteria/fungi. Plates were then, incubated aerobically at 37° C. for 18-20 hours (for S. aureus and E. coli). C. difficile was incubated anaerobically at 37° C. for 48 hours. C. albicans was incubated aerobically at 37° C. for 24 hours.

Experiment [2] relates to Vancomycin-resistant Enterococcus faecium ATCC-700221 (VRE ATCC-700221). Description: MIC of active MY compounds. Particulars: read-out: MIC VRE ATCC-700221.
Description: as §1, §2

For experiment [3], the system named is Methicillin-resistant Staphylococcus aureus (MRSA NRS-123, USA400). Description: MIC of active MY compounds. Particulars: read-out: MIC MRSA NRS123 (USA400).
Description: as §1, §2

The subject of experiment [4] is Methicillin-resistant Staphylococcus aureus (MRSA NRS-119). Description: MIC of active MY compounds. Particulars: read-out: MIC MRSA NRS119.
Description: as §1, §2

Experiment [5] concerns Vancomycin-resistant Staphylococcus aureus (VRSA10). As to the kind of experiment: MIC of active MY compounds. As to conditions: read-out: MIC VRSA10.
Description: as §1, §2

Experiment [6] deals with Cephalosporin-resistant Streptococcus pneumoniae ATCC-15916. As to the kind of experiment: MIC of active MY compounds. Particulars: ATCC15916, read-out: MIC S. pneumoniae ATCC-15916.
Description: as §1, §2

Experiment [7] deals with Staphylococcus epidermidis (NRS-101). As to the kind of experiment: MIC of active MY compounds. Particulars: NRS101, read-out: MIC S. epidermidis NRS 101.
Description: as §1, §2

The test system of experiment [8] is Vancomycin-resistant Staphylococcus aureus (VRSA12). Description: MIC of active MY compounds. Particulars: read-out: MIC VRSA12.
Description: as §1, §2

The subject of experiment [9] is Methicillin-sensitive Staphylococcus aureus ATCC-6538 (MSSA ATCC-6538). Description: MIC of active MY compounds. Particulars: read-out: MIC MSSA ATCC-6538.
Description: as §1, §2

Experiment [10] relates to Cephalosporin-resistant Streptococcus pneumoniae ATCC-700677. Description: MIC of active MY compounds. As to conditions: ATCC700677, read-out: MIC S. pneumoniae ATCC 700677.
Description: as §1, §2

The subject of experiment [11] is Methicillin-sensitive Staphylococcus aureus (MSSA NRS-107). As to the kind of experiment: MIC of active MY compounds. Particulars: read-out: MIC MSSA NRS-107.
Description: as §1, §2

The subject of experiment [12] is Listeria monocytogenes ATCC-19111. As to the kind of experiment: MIC of active MY compounds. As to conditions: ATCC19111, read-out: MIC L. monocytogenes ATCC-19111.
Experiment [13] concerns Vancomycin-resistant Enterococcus fecalis ATCC-51299 (VRE ATCC-51299). As to the kind of experiment: MBC by plating from MIC wells. As to conditions: read-out: MBC VRE ATCC-51299.
Description: as §1

For experiment [14], the system named is Vancomycin-resistant Enterococcus faecium ATCC-700221 (VRE ATCC-700221). Description: MBC by plating from MIC wells. Particulars: read-out: MBC VRE ATCC-700221.
Description: as §1

Experiment [15] deals with Methicillin-resistant Staphylococcus aureus (MRSA NRS-119). As to the kind of experiment: MBC by plating from MIC wells. As to conditions: read-out: MBC MRSA NRS119.
Description: as §1

The subject of experiment [16] is Vancomycin-resistant Staphylococcus aureus (VRSA10). Description: MBC by plating from MIC wells. Particulars: read-out: MBC VRSA10.
Description: as §1

The test system of experiment [17] is Listeria monocytogenes ATCC-19111. As to the kind of experiment: MBC by plating from MIC wells.
Description: as §1

The test system of experiment [18] is Staphylococcus epidermidis (NRS-101). As to the kind of experiment: MBC by plating from MIC wells.
Description: as §1

Experiment [19] relates to Vancomycin-resistant Staphylococcus aureus (VRSA12). Description: MBC by plating from MIC wells. Particulars: read-out: MBC VRSA12.
Description: as §1

In experiment [20] the test system is Methicillin-sensitive Staphylococcus aureus (MSSA NRS-107). Description: MBC by plating from MIC wells. As to conditions: read-out: MBC MSSA NRS-107.
Description: as §1

In brackets after ≈: the same amount, converted by molar mass. Read-outs that look alike come from different tables or passages of the source.

Usually MIC stands for the lowest concentration found to suppress growth. By MBC is commonly meant the smallest concentration meeting the test's criterion for killing.

As for `CN[C@H](CC(C)C)C(=O)N[C@H]1C(=O)N[C@@H](CC(N)=O)C(=O)N[C@H]2C(=O)N[C@H]3C(=O)N[C@H](C(=O)N[C@H](C(=O)O)c4cc(O)cc(O)c4-c4cc3ccc4O)[C@H](O)c3ccc(c(Cl)c3)Oc3cc2cc(c3O[C@@H]2O[C@H](CO)[C@@H](O)[C@H](O)[C@H]2O[C@H]2C[C@](C)(N)[C@H](O)[C@H](C)O2)Oc2ccc(cc2Cl)[C@H]1O` [Vancomycin, reference compound], the MIC in [1] was 32 µg/mL; in [2] it was over 64 µg/mL; in experiment [3] it was 1 µg/mL; in experiment [4] it was 1 µg/mL; in experiment [5], 64 µg/mL; in [6], 1 µg/mL. For the same molecule, the minimal inhibitory concentration (MIC) in [7] is 2 µg/mL; in experiment [8], 64 µg/mL; in experiment [9], 1 µg/mL; in experiment [10], 1 µg/mL; in experiment [11] it was 2 µg/mL; in experiment [12] it was 1 µg/mL. For the same molecule, the MBC was 64 µg/mL (≈ 44.2 µM) in [13]; over 64 µg/mL in experiment [14]; 1 µg/mL (≈ 0.69 µM) in [15]; over 64 µg/mL in experiment [16]; 2 µg/mL (≈ 1.38 µM) in experiment [17] (ATCC19111, read-out: MBC L. monocytogenes ATCC-19111); 2 µg/mL (≈ 1.38 µM) in experiment [18] (NRS101, read-out: MBC S. epidermidis NRS 101). The values for the minimum bactericidal concentration (MBC) in [19] and in [20] were over 64 µg/mL and 2 µg/mL (≈ 1.38 µM), respectively.

Regarding `CC(=O)NC[C@H]1CN(c2ccc(N3CCOCC3)c(F)c2)C(=O)O1` [Linezolid, reference compound], the minimum inhibitory concentration (MIC) in experiment [1] came to 1 µg/mL; in experiment [2], 1 µg/mL; in experiment [3], 1 µg/mL; in experiment [4], 64 µg/mL; in experiment [5], 1 µg/mL; in experiment [6], 1 µg/mL. In addition, the minimum inhibitory concentration (MIC) in experiment [7] was determined as 0.5 µg/mL; in [8] it was 1 µg/mL; in experiment [9], 0.5 µg/mL; in [10], 1 µg/mL; in experiment [11], 1 µg/mL; in experiment [12] it was 0.5 µg/mL. Further, the MBC is 16 µg/mL (≈ 47.4 µM) in [13] (99.9% reduction in CFU); 16 µg/mL (≈ 47.4 µM) in experiment [14] (99.9% reduction in CFU); over 64 µg/mL in [15] (99.9% reduction in CFU); over 64 µg/mL in [16] (99.9% reduction in CFU); 32 µg/mL (≈ 94.9 µM) in [17] (ATCC19111, 99.9% reduction in CFU, read-out: MBC L. monocytogenes ATCC-19111); 8 µg/mL (≈ 23.7 µM) in [18] (NRS101, 99.9% reduction in CFU, read-out: MBC S. epidermidis NRS 101). In addition, the MBC in experiment [19] (99.9% reduction in CFU) and in experiment [20] (99.9% reduction in CFU) was 16 µg/mL (≈ 47.4 µM) in each case.
